Data published in BindingDB's records for patent US12391671 (Dana-Farber Cancer Institute, 2025).

Experiments:
Experiment in all cases: HTRF-Based EGFR Biochemical Assay
[1] = target: Epidermal growth factor receptor [L858R] (Homo sapiens, UniProt P00533, L858R)
Method: (§1) EGFR biochemical activity measurements were carried out using the homogeneous time-resolved fluorescence (HTRF) assay (Cisbio), inhibitors and DMSO normalizations were first dispensed to empty black low-volume 384-well plates (Corning) with 0300 digital liquid dispenser (HP). All reactions were carried out at room temperature and solutions were added to plates with a Multidrop Combi Reagent Dispenser (ThermoFisher). The reaction mixture (10 μL final volume) contained 1 μM tyrosine kinase peptide-biotin substrate and mutant EGFR in a reaction buffer (50 mM HEPES pH 7.0, 5 mM MgCl2, 1 mM MnCl2, 0.01% BSA, 2 mM TCEP, 0.1 mM NaVO4). Enzyme concentrations were adjusted to accommodate varying kinase activities (L858R 0.1 nM, L858R/T790M 0.02 nM). Enzyme reaction solution (2× concentrations, 5 μL) was added to 384-well plates containing compounds and incubated for 30 mins. Enzyme reactions were initiated with the addition of 5 μL of ATP to a final concentration of 100 μM and reacted for 20 mins. Reactions were quenched with the addition of 10 μL of phospho-tyrosine antibody-Europium(III) cryptate (1-to-180 volume ratio) and Streptavidin-XL665 (46.7 nM) in EDTA-containing detection buffer, then incubated at room temperature for 1 hour, and read with a PHERAstar plate reader (excitation=337 nm, emission=620 nm and 665 nm).

[2] = target: Epidermal growth factor receptor [T790M,L858R] (Homo sapiens, UniProt P00533, L858R/T790M)
Method: as §1

[3] = target: Epidermal growth factor receptor [T790M,L858R] (Homo sapiens, UniProt P00533, T790M/L858R)
Method: as §1

Epidermal growth factor receptor [L858R], sequence (P00533 25-1210 L858R limits assumed): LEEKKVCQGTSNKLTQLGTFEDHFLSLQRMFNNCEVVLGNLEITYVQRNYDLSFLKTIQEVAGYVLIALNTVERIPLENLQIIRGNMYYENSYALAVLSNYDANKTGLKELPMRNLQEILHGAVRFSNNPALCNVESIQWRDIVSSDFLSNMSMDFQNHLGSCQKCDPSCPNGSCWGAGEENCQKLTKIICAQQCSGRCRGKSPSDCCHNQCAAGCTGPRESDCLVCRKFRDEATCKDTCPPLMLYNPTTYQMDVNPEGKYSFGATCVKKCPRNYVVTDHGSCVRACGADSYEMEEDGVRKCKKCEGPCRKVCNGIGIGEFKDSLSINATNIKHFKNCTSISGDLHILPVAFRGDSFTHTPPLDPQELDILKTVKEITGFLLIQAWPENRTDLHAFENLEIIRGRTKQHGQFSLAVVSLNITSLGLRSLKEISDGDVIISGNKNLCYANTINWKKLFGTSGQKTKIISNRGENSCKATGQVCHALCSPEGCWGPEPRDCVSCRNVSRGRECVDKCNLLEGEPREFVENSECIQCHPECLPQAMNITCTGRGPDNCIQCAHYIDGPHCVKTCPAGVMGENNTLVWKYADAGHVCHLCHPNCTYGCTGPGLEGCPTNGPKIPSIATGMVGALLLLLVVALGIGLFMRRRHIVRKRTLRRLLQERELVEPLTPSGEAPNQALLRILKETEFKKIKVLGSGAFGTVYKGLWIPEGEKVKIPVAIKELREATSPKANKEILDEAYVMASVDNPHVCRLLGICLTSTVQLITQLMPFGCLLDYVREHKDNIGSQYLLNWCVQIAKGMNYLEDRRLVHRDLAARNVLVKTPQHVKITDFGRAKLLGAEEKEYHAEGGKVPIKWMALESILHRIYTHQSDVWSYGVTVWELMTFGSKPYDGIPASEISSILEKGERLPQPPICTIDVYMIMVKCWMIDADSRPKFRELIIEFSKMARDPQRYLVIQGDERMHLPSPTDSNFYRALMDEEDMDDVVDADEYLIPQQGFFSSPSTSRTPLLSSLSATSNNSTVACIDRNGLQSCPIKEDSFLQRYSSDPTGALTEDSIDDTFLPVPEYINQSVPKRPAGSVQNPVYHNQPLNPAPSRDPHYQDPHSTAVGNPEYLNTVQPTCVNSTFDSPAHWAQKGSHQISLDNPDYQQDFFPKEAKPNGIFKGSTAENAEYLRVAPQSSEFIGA
Epidermal growth factor receptor [T790M,L858R] (Homo sapiens, UniProt P00533, L858R/T790M), sequence (P00533 25-1210 T790M/L858R limits assumed): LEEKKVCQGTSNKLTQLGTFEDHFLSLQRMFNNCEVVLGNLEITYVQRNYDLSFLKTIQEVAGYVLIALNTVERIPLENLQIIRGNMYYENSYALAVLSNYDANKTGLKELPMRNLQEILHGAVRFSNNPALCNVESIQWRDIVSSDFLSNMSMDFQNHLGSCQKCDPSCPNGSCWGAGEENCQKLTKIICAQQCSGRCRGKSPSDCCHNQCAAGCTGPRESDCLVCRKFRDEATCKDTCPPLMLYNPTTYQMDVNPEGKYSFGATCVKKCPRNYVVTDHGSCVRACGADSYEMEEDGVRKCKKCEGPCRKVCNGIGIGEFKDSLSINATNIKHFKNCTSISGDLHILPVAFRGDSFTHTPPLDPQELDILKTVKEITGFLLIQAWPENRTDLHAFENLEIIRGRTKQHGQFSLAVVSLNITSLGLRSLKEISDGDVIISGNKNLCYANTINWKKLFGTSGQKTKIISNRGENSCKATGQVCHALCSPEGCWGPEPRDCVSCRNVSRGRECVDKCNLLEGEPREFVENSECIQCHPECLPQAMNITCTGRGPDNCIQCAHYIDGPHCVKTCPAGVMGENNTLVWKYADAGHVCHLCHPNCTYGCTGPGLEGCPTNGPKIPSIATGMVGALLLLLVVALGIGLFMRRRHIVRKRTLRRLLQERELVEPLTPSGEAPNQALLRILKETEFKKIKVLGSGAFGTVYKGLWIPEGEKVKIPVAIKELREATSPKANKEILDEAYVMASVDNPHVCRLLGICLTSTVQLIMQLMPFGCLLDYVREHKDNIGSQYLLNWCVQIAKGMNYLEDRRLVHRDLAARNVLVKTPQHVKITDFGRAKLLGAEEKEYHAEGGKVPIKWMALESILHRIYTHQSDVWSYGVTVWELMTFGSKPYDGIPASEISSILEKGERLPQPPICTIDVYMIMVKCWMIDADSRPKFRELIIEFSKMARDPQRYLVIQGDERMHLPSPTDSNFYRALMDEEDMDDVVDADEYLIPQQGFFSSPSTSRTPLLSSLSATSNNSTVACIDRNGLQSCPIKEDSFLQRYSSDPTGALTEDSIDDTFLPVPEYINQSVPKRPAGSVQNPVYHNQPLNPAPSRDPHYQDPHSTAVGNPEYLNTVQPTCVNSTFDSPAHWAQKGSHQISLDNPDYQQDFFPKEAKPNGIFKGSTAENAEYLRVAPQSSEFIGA
Epidermal growth factor receptor [T790M,L858R] (Homo sapiens, UniProt P00533, T790M/L858R), sequence (P00533 25-1210 T790M/L858R limits assumed): as above

| Compound | IC50 [1] [nM] | IC50 [2] [nM] | IC50 [3] [nM] |
| --- | --- | --- | --- |
| CN1CCC(c2ccc(-c3ccc4c(c3F)C(=O)N(C(c3nc5ccccc5[nH]3)c3cc(F)ccc3O)C4)cc2)CC1 (stereo not drawn) [US12391671, Compound 032] | 2 | 0.3 |  |
| CN1CCC(c2ccc(-c3ccc4c(c3)C(=O)N(C(c3nc5ccccc5[nH]3)c3cccc(Cl)c3O)C4)cc2)CC1 (stereo not drawn) [US12391671, Compound 043] | 49 | 73 |  |
| O=C1c2cc(-c3ccc(N4CCNCC4)cc3)ccc2CN1C(c1nc2ccccc2[nH]1)c1cc(F)ccc1O (stereo not drawn) [US12391671, Compound 021] | 6 | 2 |  |
| CC1=CNC([C@H](c2cc(F)ccc2O)N2CC3=CC=C(c4ccc(C5CCN(C)CC5)cc4)C(F)C3C2=O)N1 (stereo partly drawn) [US12391671, Compound 094] | 1 |  | 2 |
